Experimental data as given in ChEMBL document CHEMBL5365531, “Structure-Activity Relationship Studies of SARS-CoV-2 Main Protease Inhibitors Containing 4-Fluorobenzothiazole-2-carbonyl Moieties” (J Med Chem, 2023).

Assays:
MOLT-4 = experiment: Cytotoxicity against human MOLT-4 cells assessed as reduction in cell viability at 3 uM incubated for 12 days by CCK-8 assay; type: toxicity, cell-based; conditions: molt-4, 288 h, time 12 day
[1] = Mutagenicity in Salmonella typhimurium TA1535 assessed as fold increase in number of revertants at 0.152 to 333 ug incubated in presence of S9 fraction by micro-Ames test relative to control; type: toxicity, subcellular, Salmonella enterica subsp. enterica serovar Typhimurium; conditions: dose 0.152-333 µg
[2] = Mutagenicity in Salmonella typhimurium TA100 assessed as fold increase in number of revertants at 0.152 to 333 ug incubated in absence of S9 fraction by micro-Ames test relative to control; type: toxicity, Salmonella enterica subsp. enterica serovar Typhimurium; conditions: in vivo; dose 0.152-333 µg
[3] = Mutagenicity in Salmonella typhimurium TA1537 assessed as fold increase in number of revertants at 0.152 to 333 ug incubated in absence of S9 fraction by micro-Ames test relative to control; type: toxicity, Salmonella enterica subsp. enterica serovar Typhimurium; conditions: in vivo; dose 0.152-333 µg
[4] = Mutagenicity in Salmonella typhimurium TA1535 assessed as fold increase in number of revertants at 0.152 to 333 ug incubated in absence of S9 fraction by micro-Ames test relative to control; type: toxicity, Salmonella enterica subsp. enterica serovar Typhimurium; conditions: in vivo; dose 0.152-333 µg
[5] = Mutagenicity in Salmonella typhimurium TA98 assessed as inhibition of bacterial growth at 0.152 to 333 ug incubated in absence of S9 fraction by micro-Ames test; type: toxicity, Salmonella enterica subsp. enterica serovar Typhimurium; conditions: in vivo; dose 0.152-333 µg
SARS-CoV-2 [6] = experiment: Antiviral activity against SARS-CoV-2 assessed as fold change relative to YH-53; type: functional, Severe acute respiratory syndrome coronavirus 2
[7] = Mutagenicity in Salmonella typhimurium TA1537 assessed as inhibition of bacterial growth at 0.152 to 333 ug incubated in presence of S9 fraction by micro-Ames test; type: toxicity, subcellular, Salmonella enterica subsp. enterica serovar Typhimurium; conditions: dose 0.152-333 µg
[8] = Mutagenicity in Escherichia coli WP2uvrA assessed as inhibition of bacterial growth at 0.152 to 333 ug incubated in presence of S9 fraction by micro-Ames test; type: toxicity, subcellular; conditions: dose 0.152-333 µg
[9] = Stability of compound in DMSO incubated for 7 days at -18 degreeC by RP-HPLC analysis; type: physicochemical; conditions: 168 h; time 7 day
[10] = Cytotoxicity against human HepG2 cells; type: toxicity, cell-based
[11] = Mutagenicity in Salmonella typhimurium TA100 assessed as inhibition of bacterial growth at 0.152 to 333 ug incubated in absence of S9 fraction by micro-Ames test; type: toxicity, Salmonella enterica subsp. enterica serovar Typhimurium; conditions: in vivo; dose 0.152-333 µg
[12] = Mutagenicity in Salmonella typhimurium TA100 assessed as inhibition of bacterial growth at 0.152 to 333 ug incubated in presence of S9 fraction by micro-Ames test; type: toxicity, subcellular, Salmonella enterica subsp. enterica serovar Typhimurium; conditions: dose 0.152-333 µg
[13] = Stability of compound in 50% MeCN in H2O incubated for 24 hrs at room temperature by RP-HPLC analysis; type: physicochemical
SARS-CoV-2 [14] = experiment: Antiviral activity against SARS-CoV-2 hCoV-19/Japan/TKYS02037/2022 (omicron BA.2) infected in Vero E6 cells preincubated with cells for 1 day followed by viral infection and measured after 3 days by qRT-PCR analysis; type: functional, organism-based; conditions: Severe acute respiratory syndrome coronavirus 2, hCoV-19/Japan/TKYS02037/2022 (omicron BA.2), Vero C1008
Vero C1008 = experiment: Cytotoxicity against African green monkey Vero E6 cells infected with SARS-CoV-2 WK-521 upto 100 uM incubated for 3 days by immunostaining analysis; type: toxicity, cell-based; conditions: chlorocebus sabaeus, vero c1008, 72 h, time 3 day
SARS-CoV-2 [15] = experiment: Antiviral activity against SARS-CoV-2 infected in Vero E6 cells preincubated with cells for 1 day in absence of HCl followed by viral infection and measured after 3 days by qRT-PCR analysis; type: functional, organism-based; conditions: Severe acute respiratory syndrome coronavirus 2, Vero C1008
[16] = Cytotoxicity against human HeLa cells expressing ACE2 and TMPRSS2; type: toxicity, cell-based
SARS-CoV-2 [17] = experiment: Antiviral activity against SARS-CoV-2 JPN/TY/WK-521 infected in Vero E6 cells preincubated with cells for 1 day followed by viral infection and measured after 3 days by qRT-PCR analysis; type: functional, organism-based; conditions: Severe acute respiratory syndrome coronavirus 2, JPN/TY/WK-521, Vero C1008
[18] = Cytotoxicity against African green monkey Vero E6 cells in presence of P-glycoprotein inhibitor, CP100356; type: toxicity, cell-based, Vero C1008; conditions: chlorocebus sabaeus, with CP100356 (P-glycoprotein inhibitor)
[19] = Mutagenicity in Salmonella typhimurium TA100 assessed as fold increase in number of revertants at 0.152 to 333 ug incubated in presence of S9 fraction by micro-Ames test relative to control; type: toxicity, subcellular, Salmonella enterica subsp. enterica serovar Typhimurium; conditions: dose 0.152-333 µg
[20] = Mutagenicity in Salmonella typhimurium TA1537 assessed as inhibition of bacterial growth at 0.152 to 333 ug incubated in absence of S9 fraction by micro-Ames test; type: toxicity, Salmonella enterica subsp. enterica serovar Typhimurium; conditions: in vivo; dose 0.152-333 µg
[21] = Mutagenicity in Escherichia coli WP2uvrA assessed as inhibition of bacterial growth at 0.152 to 333 ug incubated in absence of S9 fraction by micro-Ames test; type: toxicity; conditions: in vivo; dose 0.152-333 µg
PBMC = experiment: Cytotoxicity against human PBMC cells assessed as reduction in cell viability at 3 uM incubated for 12 days by CCK-8 assay; type: toxicity, cell-based; conditions: 288 h, time 12 day
[22] = Oral bioavailability in PXB mouse at 10 mg/kg measured for 24 hrs; type: ADME, organism-based; conditions: in vivo
SARS-CoV-2 [23] = experiment: Antiviral activity against SARS-CoV-2 JPN/TY/WK-521 infected in Vero E6 cells assessed as inhibition of viral replication preincubated with cells for 1 day followed by viral infection and measured after 3 to 4 days by qRT-PCR analysis; type: functional, organism-based; conditions: Severe acute respiratory syndrome coronavirus 2, JPN/TY/WK-521, Vero C1008
SARS-CoV-2 [24] = experiment: Antiviral activity against SARS-CoV-2 infected in Vero E6 cells preincubated with cells for 1 day in presence of HCl treated compound followed by viral infection and measured after 3 days by qRT-PCR analysis; type: functional, organism-based; conditions: Severe acute respiratory syndrome coronavirus 2, Vero C1008
[25] = Mutagenicity in Salmonella typhimurium TA1537 assessed as fold increase in number of revertants at 0.152 to 333 ug incubated in presence of S9 fraction by micro-Ames test relative to control; type: toxicity, subcellular, Salmonella enterica subsp. enterica serovar Typhimurium; conditions: dose 0.152-333 µg
[26] = Cytotoxicity against human A549-hACE2-TMPRSS2 cells; type: toxicity, cell-based
[27] = Mutagenicity in Salmonella typhimurium TA1535 assessed as inhibition of bacterial growth at 0.152 to 333 ug incubated in presence of S9 fraction by micro-Ames test; type: toxicity, subcellular, Salmonella enterica subsp. enterica serovar Typhimurium; conditions: dose 0.152-333 µg
MT2 = experiment: Cytotoxicity against human MT2 cells assessed as reduction in cell viability at 3 uM incubated for 12 days by CCK-8 assay; type: toxicity, cell-based; conditions: mt2, 288 h, time 12 day
[28] = Mutagenicity in Escherichia coli WP2uvrA assessed as fold increase in number of revertants at 0.152 to 333 ug incubated in presence of S9 fraction by micro-Ames test relative to control; type: toxicity, subcellular; conditions: dose 0.152-333 µg
[29] = Mutagenicity in Escherichia coli WP2uvrA assessed as fold increase in number of revertants at 0.152 to 333 ug incubated in absence of S9 fraction by micro-Ames test relative to control; type: toxicity; conditions: in vivo; dose 0.152-333 µg
[30] = Cytotoxicity against African green monkey Vero E6 cells incubated for 3 days by WST-8 assay; type: toxicity, cell-based, Vero C1008; conditions: chlorocebus sabaeus, time 3 day
[31] = Mutagenicity in Salmonella typhimurium TA1535 assessed as inhibition of bacterial growth at 0.152 to 333 ug incubated in absence of S9 fraction by micro-Ames test; type: toxicity, Salmonella enterica subsp. enterica serovar Typhimurium; conditions: in vivo; dose 0.152-333 µg
[32] = Mutagenicity in Salmonella typhimurium TA98 assessed as inhibition of bacterial growth at 0.152 to 333 ug incubated in presence of S9 fraction by micro-Ames test; type: toxicity, subcellular, Salmonella enterica subsp. enterica serovar Typhimurium; conditions: dose 0.152-333 µg
[33] = Stability of compound in 50% MeCN in H2O containing 0.05% trifluoroacetic acid assessed as (1R,2S,5S)-3-((S)-3,3-dimethyl-2-(2,2,2-trifluoroacetamido)butanoyl)-N-((S)-1-(4-fluorobenzo[d]thiazol-2-yl)-1-oxo-3-((S)-2-oxopyrrolidin-3-yl)propan-2-yl)-6,6-dimethyl-3-azabicyclo[3.1.0]hexane-2-carboxamide formation at 5 degreeC measured after 24 hrs by RP-HPLC analysis; type: physicochemical
[34] = target: Replicase polyprotein 1ab (Severe acute respiratory syndrome coronavirus 2, UniProt P0DTD1); experiment: Inhibition of untagged SARS-CoV-2 JPN/TY/WK-521 Main protease using FRET-based UIVT3 as substrate by continuous fluorescence assay
[35] = Mutagenicity in Salmonella typhimurium TA98 assessed as fold increase in number of revertants at 0.152 to 333 ug incubated in absence of S9 fraction by micro-Ames test relative to control; type: toxicity, Salmonella enterica subsp. enterica serovar Typhimurium; conditions: in vivo; dose 0.152-333 µg
SARS-CoV-2 [36] = experiment: Antiviral activity against SARS-CoV-2 JPN/TY/WK-521 infected in Vero E6 cells assessed as fold change preincubated with cells for 1 day followed by viral infection and measured after 3 days by qRT-PCR analysis relative to TKB245; type: functional, Severe acute respiratory syndrome coronavirus 2; conditions: time 4 day
[37] = Mutagenicity in Salmonella typhimurium TA98 assessed as fold increase in number of revertants at 0.152 to 333 ug incubated in presence of S9 fraction by micro-Ames test relative to control; type: toxicity, subcellular, Salmonella enterica subsp. enterica serovar Typhimurium; conditions: dose 0.152-333 µg

CC(C)(C)[C@H](NC(=O)C(F)(F)F)C(=O)N1C[C@H]2[C@@H]([C@H]1C(=S)N[C@@H](C[C@@H]1CCNC1=O)C(=O)c1nc3c(F)cccc3s1)C2(C)C
Activity (MOLT-4): Non-Toxic
fold change (FC) [1]: > 2
fold change (FC) [2]: > 2
fold change (FC) [3]: > 2
fold change (FC) [4]: > 2
Activity [5]: Non-Toxic
fold change (FC) (SARS-CoV-2 [6]): 0.085
Activity [7]: Non-Toxic
Activity [8]: Non-Toxic
Stability [9]: Stable
CC50 [10]: > 200000 nM
Activity [11]: Non-Toxic
Activity [12]: Non-Toxic
Stability [13]: Stable
EC50 (SARS-CoV-2 [14]): 160 nM
Activity (Vero C1008): Non-Toxic
EC50 (SARS-CoV-2 [15]): 310 nM
CC50 [16]: > 100000 nM
EC50 (SARS-CoV-2 [17]): 310 nM
CC50 [18]: > 100000 nM
fold change (FC) [19]: > 2
Activity [20]: Non-Toxic
Activity [21]: Non-Toxic
Activity (PBMC): Non-Toxic
bioavailability [22]: 72%
EC50 (SARS-CoV-2 [23]): 220 nM
EC50 (SARS-CoV-2 [24]): 320 nM
fold change (FC) [25]: > 2
CC50 [26]: > 100000 nM
Activity [27]: Non-Toxic
Activity (MT2): Non-Toxic
fold change (FC) [28]: > 2
fold change (FC) [29]: > 2
CC50 at 72 h [30]: > 100000 nM
Activity [31]: Non-Toxic
Activity [32]: Non-Toxic
Stability [33]: Unstable
IC50 [34]: 88 nM
fold change (FC) [35]: > 2
fold change (FC) (SARS-CoV-2 [36]): 11
fold change (FC) [37]: > 2
